Laboratory results from patent publication US9994518B2, “Alpha-7 nicotinic acetylcholine receptor modulators and uses thereof” (MERCK SHARP & DOHME CORP., priority 2014, dated 2018).
pEC50: −log10 of the molar value.

Columns and labels:
[1] = molecular target: T1, α7 nAChR (rat α7/CHO cells) (Rattus norvegicus, UniProt Q05941); assay: Evaluation of modulators of α7 nAChRs using the IonFlux HT automated patch clamp system (potentiation of EC20 ACh-evoked currents); type: cell-based; conditions: percent potentiation of ACh (EC20, approx. 60 μM) response in α7/CHO cells; 6-point dose response 0.03-10 μM; whole cell patch clamp
T1 construct: expressed in transfected cells; host or cells: CHO cells (α7/CHO)
Description: Evaluation of Modulators of α7 nAChRs Using the IonFlux^HT Automated Patch Clamp System
Acetylcholine was freshly prepared for each plate run and used at an EC20 concentration (approximately 60 μM for rat α7/CHO) to induce α7 nAChR currents on the IonFlux^HT. To prepare the ACh solution for a single plate, 6 μl of the 100 mM ACh stock was diluted into 10 ml of 0.3% DMSO/external solution
Test compounds were prepared for a 6-point dose response from 0.03-10 μM. Working stocks were prepared from serial dilutions of 10 mM DMSO stock solutions to give a final DMSO concentration of 0.3%. 80 μl of the final concentration of each compound was added to the appropriate wells in an IonFlux^HT assay plate.
2×T175 flasks of α7/CHO cells (˜60-70% confluent) were washed twice with PBS and trypsinized (2 ml) for 3.5 minutes at 37° C./5% CO2. Cells were collected in F-12K complete media, counted and the number required for the assay was calculated, for example, 2×10^6 cells in a final volume of 670 μl of external solution were required to load one zone (one quarter) of an IonFlux^HT assay plate. The correct number of cells was pelleted by centrifuge, the supernatant was discarded and the cell pellet was resuspend in external solution at the required concentration so that cells were added in a volume of 80 μl per well to the IonFlux^HT assay plate.
Calculation of the Effect of Compounds on ACh Mediated Currents in α7 nAChRs:
The effect of test compounds on EC20 ACh-evoked currents was calculated by the formula: […]
The rinse protocol was the initial step in preparation of the IonFlux^HT plate. 80 μl of MilliQ water was added to every well (except Out wells) and the IonFlux^HT assay plate was run through the water rinse protocol on the machine. At the end of the run, the water was discarded from the wells. This action was repeated twice.
Briefly, to prepare the plate for the assay aliquots of cells, compounds and internal and external solutions were added to wells of the prepared IonFlux^HT plate (80 μl/well) (solutions made to manufacturer's specifications). Automated whole cell patch-clamp recordings were made using the standard IonFlux^HT single application protocol. Vacuum was held at 6 psi/hg throughout the experiment and membrane potential was held at −80 mV for 35 sec and then at −60 mV during data acquisition. Two ACh (EC20) pulses were applied at the beginning of the assay, 90 seconds apart, to provide an ACh baseline response then cells were perfused with modulators for 89 sec before ACh (EC20) was applied for 1 s. The calculation of percent potentiation of the acetylcholine response for each well was performed by the data analysis software supplied with the IonFlux^HT.
The following compounds were tested in accordance with the above-procedure for activity and the EC50 values determined are reported: […]

T1 sequence (Q05941 23-502): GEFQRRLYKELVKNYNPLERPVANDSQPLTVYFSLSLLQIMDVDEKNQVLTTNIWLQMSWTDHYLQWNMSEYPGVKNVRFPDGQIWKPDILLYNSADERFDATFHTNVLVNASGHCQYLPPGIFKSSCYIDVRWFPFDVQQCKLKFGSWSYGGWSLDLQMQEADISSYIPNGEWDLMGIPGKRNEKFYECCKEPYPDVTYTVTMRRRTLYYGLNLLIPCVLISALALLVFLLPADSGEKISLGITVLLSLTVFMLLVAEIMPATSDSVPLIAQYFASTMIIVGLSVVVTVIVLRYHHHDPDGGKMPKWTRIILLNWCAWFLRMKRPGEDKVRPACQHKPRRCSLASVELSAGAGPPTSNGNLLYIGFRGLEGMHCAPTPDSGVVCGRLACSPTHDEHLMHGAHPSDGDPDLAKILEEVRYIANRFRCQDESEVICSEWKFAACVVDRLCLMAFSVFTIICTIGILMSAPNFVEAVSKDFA

| pEC50 [1] | melting point | Structure (SMILES) |
| --- | --- | --- |
| < 5.00 | – | CC1(C)[C@@H](COc2cncnc2)[C@@H]1c1ccc(S(N)(=O)=O)cc1 (single isomer, unassigned) [Exp. 57] |
| < 5.00 | – | N#Cc1cc(F)ccc1OC[C@@H]1C[C@@H]1c1ccc(S(N)(=O)=O)cc1 (single isomer, unassigned) [Exp. 58] |

More lines, now with the values behind:

| Structure (SMILES) | pEC50 [1] | melting point |
| --- | --- | --- |
| COc1ccc(Cl)cc1OC[C@@H]1[C@@H](c2ccc(S(N)(=O)=O)cc2)C1(C)C (racemic) [Exp. 1, ±trans 4-{3-[(5-chloro-2-methoxyphenoxy)methyl]-2,2-dimethylcyclopropyl}benzenesulfonamide] | 6.98 | 158 to 160 °C |
| COc1ccc(Cl)cc1OC[C@@H]1[C@@H](c2ccc(S(N)(=O)=O)cc2)C12CCCC2 (racemic) [Exp. 2, ±trans 4-{2-[(5-chloro-2-methoxyphenoxy)methyl]spiro[2.4]hept-1-yl}benzenesulfonamide] | 6.84 | 56 to 58 °C |
| Cc1ncc(OC[C@H]2[C@H](c3ccc(S(N)(=O)=O)cc3)C2(C)C)cn1 (single isomer, unassigned) [Exp. 56] | < 5.00 | – |
